Experimental data: ChEMBL document CHEMBL1137259, “Tubeimoside V (1), a new cyclic bisdesmoside from tubers of Bolbostemma paniculatum, functions by inducing apoptosis in human glioblastoma U87MG cells” (Bioorg Med Chem Lett, 2006)
pIC50: −log10 of the molar value. Active and inactive are the calls of the source. The calls are words filed in the database; no cut-off is given here.

Assays:
U-87 MG [1] = assay: Cell cycle arrest in U87MG cells by accumulation at G2/M phase at 2.6 uM after 24 hrs; type: functional, Homo sapiens, U-87MG ATCC
U-87 MG [2] = assay: Cell cycle arrest in U87MG cells by accumulation at G0/G1 phase at 3.6 uM after 24 hrs; type: functional, Homo sapiens, U-87MG ATCC
U-87 MG [3] = assay: Cell cycle arrest in U87MG cells by accumulation at G2/M phase at 7.0 uM after 24 hrs; type: functional, Homo sapiens, U-87MG ATCC
U-87 MG [4] = assay: Cell cycle arrest in U87MG cells by accumulation at G2/M phase at 7.0 uM after 12 hrs; type: functional, Homo sapiens, U-87MG ATCC
U-87 MG [5] = assay: Cell cycle arrest in U87MG cells by accumulation at S phase at 3.6 uM after 12 hrs; type: functional, Homo sapiens, U-87MG ATCC
U-87 MG [6] = assay: Cell cycle arrest in U87MG cells by accumulation at SubG1 phase at 2.6 uM after 24 hrs; type: functional, Homo sapiens, U-87MG ATCC
U-87 MG [7] = assay: Cell cycle arrest in U87MG cells by accumulation at SubG1 phase at 7.0 uM after 12 hrs; type: functional, Homo sapiens, U-87MG ATCC
U-87 MG [8] = assay: Induction of apoptosis measured as up regulation of Bax expression in human U87MG cell line by Western blot analysis at 7.0 uM after 6 hrs; type: functional, cell-based; details: U-87MG ATCC
U-87 MG [9] = assay: Antiproliferative activity against human U87MG cell line by MTT assay; type: functional, cell-based, U-87MG ATCC
U-87 MG [10] = assay: Cell cycle arrest in U87MG cells by accumulation at G0/G1 phase at 2.6 uM after 12 hrs; type: functional, Homo sapiens, U-87MG ATCC
U-87 MG [11] = assay: Induction of apoptosis measured as down regulation of Bcl2 expression in human U87MG cell line by Western blot analysis at 7.0 uM after 6 hrs; type: functional, cell-based; details: U-87MG ATCC
U-87 MG [12] = assay: Induction of apoptosis measured as down regulation of Bcl2 expression in human U87MG cell line by Western blot analysis at 7.0 uM after 24 hrs; type: functional, cell-based; details: U-87MG ATCC
U-87 MG [13] = assay: Cell cycle arrest in U87MG cells by accumulation at S phase at 3.6 uM after 24 hrs; type: functional, Homo sapiens, U-87MG ATCC
U-87 MG [14] = assay: Cell cycle arrest in U87MG cells by accumulation at G2/M phase at 3.6 uM after 12 hrs; type: functional, Homo sapiens, U-87MG ATCC
U-87 MG [15] = assay: Cell cycle arrest in U87MG cells by accumulation at G0/G1 phase at 3.6 uM after 12 hrs; type: functional, Homo sapiens, U-87MG ATCC
U-87 MG [16] = assay: Cell cycle arrest in U87MG cells by accumulation at G0/G1 phase at 7.0 uM after 12 hrs; type: functional, Homo sapiens, U-87MG ATCC
U-87 MG [17] = assay: Cell cycle arrest in U87MG cells by accumulation at SubG1 phase at 2.6 uM after 12 hrs; type: functional, Homo sapiens, U-87MG ATCC
U-87 MG [18] = assay: Cell cycle arrest in U87MG cells by accumulation at G0/G1 phase at 2.6 uM after 24 hrs; type: functional, Homo sapiens, U-87MG ATCC
U-87 MG [19] = assay: Induction of apoptosis measured as up regulation of Bax expression in human U87MG cell line by Western blot analysis at 7.0 uM after 24 hrs; type: functional, cell-based; details: U-87MG ATCC
U-87 MG [20] = assay: Cell cycle arrest in U87MG cells by accumulation at G2/M phase at 3.6 uM after 24 hrs; type: functional, Homo sapiens, U-87MG ATCC
U-87 MG [21] = assay: Cell cycle arrest in U87MG cells by accumulation at S phase at 2.6 uM after 12 hrs; type: functional, Homo sapiens, U-87MG ATCC
U-87 MG [22] = assay: Induction of apoptosis measured as chromatin condensation in human U87MG cell line at 7.0 uM after 24 hrs by hoechst 33342 staining; type: functional, cell-based; details: U-87MG ATCC
U-87 MG [23] = assay: Cell cycle arrest in U87MG cells by accumulation at S phase at 7.0 uM after 12 hrs; type: functional, Homo sapiens, U-87MG ATCC
U-87 MG [24] = assay: Cell cycle arrest in U87MG cells by accumulation at SubG1 phase at 7.0 uM after 24 hrs; type: functional, Homo sapiens, U-87MG ATCC
U-87 MG [25] = assay: Cell cycle arrest in U87MG cells by accumulation at G0/G1 phase at 7.0 uM after 24 hrs; type: functional, Homo sapiens, U-87MG ATCC
U-87 MG [26] = assay: Cell cycle arrest in U87MG cells by accumulation at SubG1 phase at 3.6 uM after 24 hrs; type: functional, Homo sapiens, U-87MG ATCC
U-87 MG [27] = assay: Induction of apoptosis assessed as phosphatidylserine externalization in human U87MG cell line at 7.0 uM after 24 hrs by annexinV/PI assay; type: functional, cell-based; details: U-87MG ATCC
U-87 MG [28] = assay: Cell cycle arrest in U87MG cells by accumulation at S phase at 2.6 uM after 24 hrs; type: functional, Homo sapiens, U-87MG ATCC
U-87 MG [29] = assay: Cell cycle arrest in U87MG cells by accumulation at SubG1 phase at 3.6 uM after 12 hrs; type: functional, Homo sapiens, U-87MG ATCC
U-87 MG [30] = assay: Cell cycle arrest in U87MG cells by accumulation at G2/M phase at 2.6 uM after 12 hrs; type: functional, Homo sapiens, U-87MG ATCC
U-87 MG [31] = assay: Cell cycle arrest in U87MG cells by accumulation at S phase at 7.0 uM after 24 hrs; type: functional, Homo sapiens, U-87MG ATCC

Which results are given for `C[C@@H]1O[C@H]2O[C@@H]3[C@H](OC[C@@H](O)[C@H]3O)OC(=O)[C@]34CCC(C)(C)CC3C3=CCC5[C@@]6(C)C[C@H](O)[C@H](O[C@@H]7O[C@H](CO)[C@@H](O)[C@H](O)[C@H]7O[C@H]7O[C@@H](COC(=O)C[C@](C)(O)CC(=O)O[C@@H]1[C@@H](O[C@@H]1OC[C@@H](O)[C@H](O)[C@H]1O)[C@H]2O)[C@H](O)[C@@H](O)[C@@H]7O)[C@@](C)(CO)C6CC[C@@]5(C)[C@]3(C)CC4` (stereo partly drawn) [TUBEIMOSIDE V]?
Activity (U-87 MG [1]): 17.7%; Activity (U-87 MG [2]): 53.5%; Activity (U-87 MG [3]): 9.6%; Activity (U-87 MG [4]): 14.1%; Activity (U-87 MG [5]): 31.4%; Activity (U-87 MG [6]): 9.1%; Activity (U-87 MG [7]): 18.3%; Activity (U-87 MG [8]): Active; IC25 (U-87 MG [9]): 2.6 µM; pIC50 (U-87 MG [9]): 5.44; IC75 (U-87 MG [9]): 7 µM; Activity (U-87 MG [10]): 50.1%; Activity (U-87 MG [11]): Active; Activity (U-87 MG [12]): Active; Activity (U-87 MG [13]): 34.2%; Activity (U-87 MG [14]): 17.6%; Activity (U-87 MG [15]): 51%; Activity (U-87 MG [16]): 53.3%; Activity (U-87 MG [17]): 4.1%; Activity (U-87 MG [18]): 51.3%; Activity (U-87 MG [19]): Active; Activity (U-87 MG [20]): 12.3%; Activity (U-87 MG [21]): 27.6%; Activity (U-87 MG [22]): Active; Activity (U-87 MG [23]): 32.6%; Activity (U-87 MG [24]): 42.3%; Activity (U-87 MG [25]): 53.3%; Activity (U-87 MG [26]): 20.8%; Activity (U-87 MG [27]): Active; Activity (U-87 MG [28]): 31%; Activity (U-87 MG [29]): 8.9%; Activity (U-87 MG [30]): 22.3%; Activity (U-87 MG [31]): 37.1%
